In general, EC50 refers to the midpoint of the concentration-response curve.

For 34 compounds, EC50 results are on record in US10118902B2 (Sanford Burnham Prebys Medical Discovery Institute, priority 2014, dated 2018).

The experiment has as its target neurotensin receptor 1 (NTR1) (Homo sapiens (Human), UniProt P30989). As to the kind of experiment: NTR1 dose response, high-content imaging beta-arrestin-GFP assay in NTR1-U2OS cells. Type of experiment: cell-based. Particulars: read-out: EC50.

neurotensin receptor 1 (NTR1), sequence (P30989 whole entry, species assumed): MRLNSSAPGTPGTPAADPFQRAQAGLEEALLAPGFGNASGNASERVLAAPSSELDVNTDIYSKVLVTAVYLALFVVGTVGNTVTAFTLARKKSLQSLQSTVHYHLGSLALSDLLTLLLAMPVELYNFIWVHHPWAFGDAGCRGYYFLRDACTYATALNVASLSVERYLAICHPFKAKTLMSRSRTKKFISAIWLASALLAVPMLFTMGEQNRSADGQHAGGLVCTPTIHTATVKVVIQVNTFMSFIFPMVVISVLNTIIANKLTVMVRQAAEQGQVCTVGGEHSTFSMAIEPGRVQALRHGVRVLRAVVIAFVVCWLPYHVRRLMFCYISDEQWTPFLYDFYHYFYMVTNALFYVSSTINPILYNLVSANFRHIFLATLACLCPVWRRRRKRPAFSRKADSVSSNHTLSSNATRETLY

On to `COc1cc(F)ccc1C1CCN(c2nc(C3CC3)nc3cc(Cl)c(N(C)CCO)cc23)CC1` [Example 112, 2-({7-chloro-2-cyclopropyl-4-[4-(4-fluoro-2-methoxy-phenyl)-piperidin-1-yl]-quinazolin-6-yl}-methyl-amino)-ethanol], for which the concentration giving a half-maximal response (EC50) is over 10000 nM.

Consider `COc1ccccc1C1CCN(c2nc(C3(C(F)(F)F)CCCC3)nc3ccc(N(C)CCN4CCOCC4)cc23)CC1` [Example 56, [4-[4-(2-methoxy-phenyl)-piperidin-1-yl]-2-(1-trifluoromethyl-cyclopentyl)-quinazolin-6-yl]-methyl-(2-morpholin-4-yl-ethyl)-amine], for which the 50% effective concentration (EC50) was 2000 to 10000 nM.

As to `COC1CCCCC1C1CCN(c2nc(C3(F)CC3)nc3ccc(N(C)CCO)cc23)CC1` (stereo not shown) [Example 189, 2-({2-(1-Fluoro-cyclopropyl)-4-[4-(2-methoxy-cyclohexyl)-piperidin-1-yl]-quinazolin-6-yl}-methyl-amino)-ethanol], the EC50 was over 10000 nM.

As to `COc1ccccc1C1CCN(c2nc(C3(F)CC3)nc3c(Cl)cc(N4CC[C@@H](O)C4)cc23)CC1` (stereo in doubt) [Example 202, 1-{8-Chloro-2-(1-fluoro-cyclopropyl)-4-[4-(2-methoxy-phenyl)-piperidin-1-yl]-quinazolin-6-yl}-pyrrolidin-3-ol], the EC50 was in the range of 500 to 2000 nM.

As for `COc1ccccc1N1CCC(Nc2nc(C3CC3)nc3ccc(N(C)CCO)cc23)C1` (stereo not shown) [Example 154, 2-((2-cyclopropyl-4-((1-(2-methoxyphenyl)pyrrolidin-3-yl)amino)quinazolin-6-yl)(methyl)amino)ethanol], the EC50 is over 10000 nM.

Regarding `COc1ccccc1C1CCN(c2nc(C3(F)CC3)nc3ccc(N(C)CCOCCF)cc23)CC1` [Example 223, {2-(1-Fluoro-cyclopropyl)-4-[4-(2-methoxy-phenyl)-piperidin-1-yl]-quinazolin-6-yl}-[2-(2-fluoro-ethoxy)-ethyl]-methyl-amine], the 50% effective concentration (EC50) lay within 500 to 2000 nM.

With `COc1ccccc1C1CCN(c2nc(C3(F)CCC3)nc3ccc(N(C)CCN4CCOCC4)cc23)CC1` [Example 60, {2-(1-fluoro-cyclobutyl)-4-[4-(2-methoxy-phenyl)-piperidin-1-yl]-quinazolin-6-yl}-methyl-(2-morpholin-4-yl-ethyl)-amine], the concentration giving a half-maximal response (EC50) was under 500 nM.

Turning to `COc1ccccc1C1CCN(c2nc(NC3CCC3)nc3ccc(N(C)CCO)cc23)CC1` [Example 98, 2-((2-(cyclobutylamino)-4-(4-(2-methoxyphenyl)piperidin-1-yl)quinazolin-6-yl)(methyl)amino)ethanol], the EC50 is over 10000 nM.

Take `COc1cncnc1C1CCN(c2nc(C3(F)CC3)nc3c(F)cc(N(C)CCO)cc23)CC1` [Example 217, 2-({8-Fluoro-2-(1-fluoro-cyclopropyl)-4-[4-(5-methoxy-pyrimidin-4-yl)-piperidin-1-yl]-quinazolin-6-yl}-methyl-amino)-ethanol]: the concentration for a half-maximal effect (EC50) is over 10000 nM.

Regarding `CCCN(C)c1ccc2nc(C3CCCC3)nc(N3CCC(c4ccccc4OC)CC3)c2c1` [Example 40], the 50% effective concentration (EC50) was over 10000 nM.

Take `CCCN(C)c1ccc2c(N3CCC(c4ccccc4OC)CC3)nc(C3CC3)nc2c1` [Example 135, 2-cyclopropyl-4-(4-(2-methoxyphenyl)piperidin-1-yl)-N-methyl-N-propylquinazolin-7-amine]: the concentration giving a half-maximal response (EC50) is over 10000 nM.

For the compound `CCCN(C)c1cc2c(N3CCC(c4ccccc4OC)CC3)nc(C3CC3)nc2cc1F` [Example 105, {2-cyclopropyl-7-fluoro-4-[4-(2-methoxy-phenyl)-piperidin-1-yl]-quinazolin-6-yl}-methyl-propyl-amine], the half-maximal effective concentration (EC50) lay within 2000 to 10000 nM.

As for `CN(C)CCN(C)c1ccc2nc(C3CC3)nc(N3CCC(c4ccccc4N4CCC4)CC3)c2c1` [Example 5, N-{4-[4-(2-azetidin-1-yl-phenyl)-piperidin-1-yl]-2-cyclopropyl-quinazolin-6-yl}-N,N′,N′-trimethyl-ethane-1,2-diamine], the EC50 lay in the range of 2000 to 10000 nM.

Consider `COc1ccccc1C1CCN(c2nc(C3(F)CCC3)nc3cnc(N(C)CCO)cc23)CC1` [Example 198, 2-({2-(1-Fluoro-cyclobutyl)-4-[4-(2-methoxy-phenyl)-piperidin-1-yl]-pyrido[3,4-d]pyrimidin-6-yl}-methyl-amino)-ethanol], for which the concentration for a half-maximal effect (EC50) was 2000 to 10000 nM.

With `COc1ccccc1C1CCN(c2nc(C3CC3)nc3ccc(N4CC[C@H](O)C4)cc23)CC1` [Example 173, (S)-1-(2-cyclopropyl-4-(4-(2-methoxyphenyl)piperidin-1-yl)quinazolin-6-yl)pyrrolidin-3-ol], the EC50 was in the range of 500 to 2000 nM.

Regarding `COc1ccccc1C1CCN(c2nc(C3CC3)nc3ccc(N(C)CCO)c(C)c23)CC1` [Example 126, 2-({2-cyclopropyl-4-[4-(2-methoxy-phenyl)-piperidin-1-yl]-5-methyl-quinazolin-6-yl}-methyl-amino)-ethanol], the EC50 is 500 to 2000 nM.

In the case of `Cc1cc2nc(C3CC3)nc(N3CCC(c4ccccc4N4CCC4)CC3)c2cc1N(C)CCO` [Example 121, 2-({4-[4-(2-azetidin-1-yl-phenyl)-piperidin-1-yl]-2-cyclopropyl-7-methyl-quinazolin-6-yl}-methyl-amino)-ethanol], the EC50 is 500 to 2000 nM.

Consider `COc1ccccc1C1CCN(c2nc(C3(C)CCCC3)nc3ccc(N(C)CCO)cc23)CC1` [Example 51, 2-{[4-[4-(2-methoxy-phenyl)-piperidin-1-yl]-2-(1-methyl-cyclopentyl)-quinazolin-6-yl]-methyl-amino}-ethanol], for which the concentration giving a half-maximal response (EC50) was 2000 to 10000 nM.

For `COc1ccccc1C1CCN(c2nc(C3(F)CCC3)nc3c(Cl)cc(N(C)CCO)cc23)CC1` [Example 181, 2-((8-chloro-2-(1-fluorocyclobutyl)-4-(4-(2-methoxyphenyl)piperidin-1-yl)quinazolin-6-yl)(methyl)amino)ethanol], the half-maximal effective concentration (EC50) was in the range of 500 to 2000 nM.

In the case of `COc1ccccc1C1CCN(c2nc(C3CC3)nc3cnc(N(C)CCN4CCOCC4)cc23)CC1` [Example 194, 2-cyclopropyl-4-(4-(2-methoxyphenyl)piperidin-1-yl)-N-methyl-N-(2-morpholinoethyl)pyrido[3,4-d]pyrimidin-6-amine], the EC50 lay in the range of 500 to 2000 nM.

As to `COCCN(C)c1ccc2nc(C3CCCC3)nc(N3CCC(c4ccccc4OC)CC3)c2c1` [Example 39, {2-cyclopentyl-4-[4-(2-methoxy-phenyl)-piperidin-1-yl]-quinazolin-6-yl}-(2-methoxy-ethyl)-methyl-amine], the concentration for a half-maximal effect (EC50) was over 10000 nM.

With `COc1ccccc1C1CCN(c2nc(C3CC3)nc3ccc(N4CC[C@@H](O)C4)cc23)CC1` [Example 81, (R)-1-{2-cyclopropyl-4-[4-(2-methoxy-phenyl)-piperidin-1-yl]-quinazolin-6-yl}-pyrrolidin-3-ol], the concentration for a half-maximal effect (EC50) was under 500 nM.

In the case of `CCCN(C)c1ccc2nc(NC3CCC3)nc(N3CCC(c4ccccc4OC)CC3)c2c1` [Example 97, N2-Cyclobutyl-4-[4-(2-methoxy-phenyl)-piperidin-1-yl]-N6-methyl-N6-propyl-quinazoline-2,6-diamine], the half-maximal effective concentration (EC50) is over 10000 nM.

Regarding `COc1ccccc1C1CCN(c2nc(C3CCC3)nc3ccc(N(C)CCN4CCOCC4)cc23)CC1` [Example 46, {2-cyclobutyl-4-[4-(2-methoxy-phenyl)-piperidin-1-yl]-quinazolin-6-yl}-methyl-(2-morpholin-4-yl-ethyl)-amine], the half-maximal effective concentration (EC50) was 2000 to 10000 nM.

For `COc1ccccc1C1CCN(c2nc(-c3ccccc3)nc3ccc(N(C)CCN4CCOCC4)cc23)CC1` [Example 147, {4-[4-(2-methoxy-phenyl)-piperidin-1-yl]-2-phenyl-quinazolin-6-yl}-methyl-(2-morpholin-4-yl-ethyl)-amine], the concentration giving a half-maximal response (EC50) is over 10000 nM.

For the compound `CCCN(C)c1cc2c(N3CCC(c4ccccc4N4CCC4)CC3)nc(C3CC3)nc2cc1F` [Example 106, {4-[4-(2-azetidin-1-yl-phenyl)-piperidin-1-yl]-2-cyclopropyl-7-fluoro-quinazolin-6-yl}-methyl-propyl-amine], the EC50 was over 10000 nM.

Take `COc1ccccc1C1CCN(c2nc(C3(C)CC3)nc3ccc(N(C)CCO)cc23)CC1` [Example 22, 2-{[4-[4-(2-methoxy-phenyl)-piperidin-1-yl]-2-(1-methyl-cyclopropyl)-quinazolin-6-yl]-methyl-amino}-ethanol]: the EC50 was under 500 nM.

Take `COc1ccccc1C1CCN(c2nc(C3CC3)nc3c(F)cc(N(C)CCO)cc23)CC1` [Example 133, 2-((2-cyclopropyl-8-fluoro-4-(4-(2-methoxyphenyl)piperidin-1-yl)quinazolin-6-yl)(methyl)amino)ethanol]: the EC50 is under 500 nM.

For the compound `COc1ccccc1C1CCN(c2nc(C3CC3)nc3ccc(N4CC[C@@H](OC)C4)cc23)CC1` [Example 83, (R)-2-cyclopropyl-4-(4-(2-methoxyphenyl)piperidin-1-yl)-6-(3-methoxypyrrolidin-1-yl)quinazoline], the EC50 was under 500 nM.

Turning to `CN(C)c1ccccc1C1CCN(c2nc(C3(C(F)(F)F)CCCC3)nc3ccc(N(C)CCO)cc23)CC1` [Example 57, 2-{[4-[4-(2-dimethylamino-phenyl)-piperidin-1-yl]-2-(1-trifluoromethyl-cyclopentyl)-quinazolin-6-yl]-methyl-amino}-ethanol], the EC50 lay within 500 to 2000 nM.

With `COc1ccccc1C1CCN(c2nc(C3CC3)nc3cc(N(C)CCO)ccc23)CC1` [Example 169, 2-({2-Cyclopropyl-4-[4-(2-methoxy-phenyl)-piperidin-1-yl]-quinazolin-7-yl}-methyl-amino)-ethanol], the 50% effective concentration (EC50) fell in the range of 2000 to 10000 nM.

For `COc1ccccc1C1CCN(c2nc(C3CC3)nc3ccc(N4CCC(O)CC4)cc23)CC1` [Example 76, 1-{2-cyclopropyl-4-[4-(2-methoxy-phenyl)-piperidin-1-yl]-quinazolin-6-yl}-piperidin-4-ol], the EC50 was in the range of 2000 to 10000 nM.

For `CN(C)c1ccccc1C1CCN(c2nc(C3(C)CCCC3)nc3ccc(N(C)CCN4CCOCC4)cc23)CC1` [Example 54, [4-[4-(2-dimethylamino-phenyl)-piperidin-1-yl]-2-(1-methyl-cyclopentyl)-quinazolin-6-yl]-methyl-(2-morpholin-4-yl-ethyl)-amine], the EC50 lay in the range of 2000 to 10000 nM.

On to `COC(=O)Cc1c(C)nc(N2CCC(c3ccccc3OC)CC2)nc1C1CC1` [Example 161, {4-cyclopropyl-2-[4-(2-methoxy-phenyl)-piperidin-1-yl]-6-methyl-pyrimidin-5-yl}-acetic acid methyl ester], for which the half-maximal effective concentration (EC50) is over 10000 nM.
